Data published in patent US10294229B2, “Heteroaryl substituted aminopyridine compounds” (BRISTOL-MYERS SQUIBB COMPANY, priority 2015, dated 2019).

Experiments:
IRAK4 = IRAK4 (Homo sapiens (Human), UniProt Q9NWZ3); assay: IRAK4 Inhibition Assay; format: biochemical; conditions: ATP 500 μM; IRAK4 0.6 nM
Summary of the method: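 Enzyme 0.6 nM, ATP 500 μM, FL-peptide 1.5 μM, DMSO 1.6%; HEPES pH 7.2/MgCl2/Brij 35/DTT buffer. RT, 60 min, EDTA stop. Mobility-shift product/substrate ratio; % inhib vs no-enzyme and vehicle controls.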

Caco-2 cells = assay: Caco-2 Permeability Assay; format: in vitro ADME; conditions: test compound 3 μM
Summary of the method: (§1)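 Bidirectional permeability measured over 2 h at 37° C, compound dosed at 3 μM in the donor compartment (apical for absorptive, basolateral for secretive) with plain buffer as receiver.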

[1] = tested on: Human whole blood stimulated with a TLR2 agonist (lipoteichoic acid), IL-6 levels; assay: IRAK4 Whole Blood Assay; format: cell-based; conditions: lipoteichoic acid 10 μg/mL
Summary of the method: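 ACD-A-anticoagulated human whole blood was preincubated with compounds for 60 min at 37 °C under 5% CO2. It was then stimulated with 10 μg/mL lipoteichoic acid (final) in RPMI for 5 h. IL-6 in plasma supernatants was measured by flow cytometry bead assay.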

[2] = Caco-2 Permeability Assay; format: in vitro ADME; conditions: human, Caco-2, test compound 3 μM
Summary of the method: as §1

IRAK4, sequence (Q9NWZ3 whole entry, species assumed): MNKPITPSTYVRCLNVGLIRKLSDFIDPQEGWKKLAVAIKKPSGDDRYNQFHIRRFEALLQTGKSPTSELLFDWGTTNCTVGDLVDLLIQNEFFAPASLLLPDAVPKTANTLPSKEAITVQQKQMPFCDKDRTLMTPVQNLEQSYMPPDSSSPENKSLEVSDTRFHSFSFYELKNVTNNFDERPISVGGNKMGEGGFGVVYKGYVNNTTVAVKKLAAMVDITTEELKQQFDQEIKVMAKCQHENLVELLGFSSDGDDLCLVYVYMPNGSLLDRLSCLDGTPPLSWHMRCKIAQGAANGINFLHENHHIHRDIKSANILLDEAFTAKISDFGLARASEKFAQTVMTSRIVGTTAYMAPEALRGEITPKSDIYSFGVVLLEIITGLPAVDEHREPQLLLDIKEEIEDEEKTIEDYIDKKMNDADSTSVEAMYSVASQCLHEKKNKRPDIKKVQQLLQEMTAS

| Compound | IC50 (IRAK4) [nM] | Caco-2 Permeability (Caco-2 cells; listed as 400, Isomer 2) [×10⁻⁶ cm/s] | EC50 ([1]; listed as 400, Isomer 2) [nM] | Caco-2 Permeability (Caco-2 cells) [×10⁻⁶ cm/s] | EC50 [1] [nM] | Caco-2 Permeability (Caco-2 cells; listed as 400, Isomer 1) [×10⁻⁶ cm/s] | EC50 ([1]; Homo sapiens) [nM] | Papp at 2 h, 3 µM [2] [×10⁻⁶ cm/s] |
| --- | --- | --- | --- | --- | --- | --- | --- | --- |
| CC(C)Nc1cc(-n2ncc3cc(C#N)cnc32)ncc1-c1cc(C2COCCN2)no1 (single isomer, unassigned) [Example 400, Isomer 2, 1-(4-(isopropylamino)-5-(3-(morpholin-3-yl)isoxazol-5-yl)pyridin-2-yl)-1H-pyrazolo[3,4-b]pyridine-5-carbonitrile] | 6 | 53 | 270 | – | – | – | – | – |
| CC(C)Nc1cc(-n2ncc3cc(C#N)cnc32)ncc1-c1cn(CC2CC2(F)F)nn1 (single isomer, unassigned) [Example 32, 1-(5-(1-((2,2-difluorocyclopropyl)methyl)-1H-1,2,3-triazol-4-yl)-4-(isopropylamino)pyridin-2-yl)-1H-pyrazolo[3,4-b]pyridine-5-carbonitrile] | 5 | – | – | 16.2 | 370 | – | – | – |
| CC(C)Nc1cc(-n2ncc3cc(C#N)cnc32)ncc1-c1cc(C2CCCCN2)no1 [Example 413, (S)-1-(4-(isopropylamino)-5-(3-(piperidin-2-yl)isoxazol-5-yl)pyridin-2-yl)-1H-pyrazolo[3,4-b]pyridine-5-carbonitrile] | 5 | – | – | 13.9 | 300 | – | – | – |
| CC(C)Nc1cc(-n2ncc3cc(C#N)cnc32)ncc1-c1cn([C@@H]2CCN(S(C)(=O)=O)C[C@H]2F)nn1 (single isomer, unassigned) [Example 211, 1-(5-(1-((trans)-3-fluoro-1-(methylsulfonyl)piperidin-4-yl)-1H-1,2,3-triazol-4-yl)-4-(isopropylamino)pyridin-2-yl)-1H-pyrazolo[3,4-b]pyridine-5-carbonitrile] | 2 | – | – | 3.2 | 290 | – | – | – |
| CC(C)Nc1cc(-n2ncc3cc(C#N)cnc32)ncc1-c1cn(C2CCOC2)nn1 (centres unmarked) [Example 215, 1-(4-(isopropylamino)-5-(1-(tetrahydrofuran-3-yl)-1H-1,2,3-triazol-4-yl)pyridin-2-yl)-1H-pyrazolo[3,4-b]pyridine-5-carbonitrile] | 8 | – | – | 10.4 | 1310 | – | – | – |
| CC(=O)N1CCCC(n2cc(-c3cnc(-n4ncc5cc(C#N)cnc54)cc3NC(C)C)nn2)C1 (centres unmarked) [Example 161, 1-(5-(1-(1-acetylpiperidin-3-yl)-1H-1,2,3-triazol-4-yl)-4-(isopropylamino)pyridin-2-yl)-1H-pyrazolo[3,4-b]pyridine-5-carbonitrile] | 2 | – | – | 3.5 | 250 | – | – | – |
| CCNc1cc(-n2ncc3cc(C#N)cnc32)ncc1C1=NOC(CCC(C)(C)O)C1 (centres unmarked) [Example 441, 1-(4-(ethylamino)-5-(5-(3-hydroxy-3-methylbutyl)-4,5-dihydroisoxazol-3-yl)pyridin-2-yl)-1H-pyrazolo[3,4-b]pyridine-5-carbonitrile] | 2 | – | – | 31.7 | 260 | – | – | – |
| CC(C)Nc1cc(-n2ncc3cc(C#N)cnc32)ncc1-c1cc(C2COCCN2)no1 (single isomer, unassigned) [Example 400, Isomer 1, 1-(4-(isopropylamino)-5-(3-(morpholin-3-yl)isoxazol-5-yl)pyridin-2-yl)-1H-pyrazolo[3,4-b]pyridine-5-carbonitrile] | 3 | – | – | – | – | 22.4 | 230 | – |
| CC(C)Nc1cc(-n2ncc3cc(C#N)cnc32)ncc1-c1cc(CC(C)(C)O)on1 [Example 439, 1-(5-(5-(2-hydroxy-2-methylpropyl)isoxazol-3-yl)-4-(isopropylamino)pyridin-2-yl)-1H-pyrazolo[3,4-b]pyridine-5-carbonitrile] | – | – | – | 31 | 250 | – | – | – |
| CC(=O)N1CCC[C@@H](c2cc(-c3cnc(-n4ncc5cc(C#N)cnc54)cc3NC(C)C)on2)C1 [Example 409, (R)-1-(5-(3-(1-acetylpiperidin-3-yl)isoxazol-5-yl)-4-(isopropylamino)pyridin-2-yl)-1H-pyrazolo[3,4-b]pyridine-5-carbonitrile] | 2 | – | – | 30.2 | 470 | – | – | – |
| CCC(C)(O)Cn1cc(-c2cnc(-n3ncc4cc(C#N)cnc43)cc2NC(C)C)nn1 (single isomer, unassigned) [Example 93, 1-(5-(1-(2-hydroxy-2-methylbutyl)-1H-1,2,3-triazol-4-yl)-4-(isopropylamino)pyridin-2-yl)-1H-pyrazolo[3,4-b]pyridine-5-carbonitrile] | 10 | – | – | 11.5 | 280 | – | – | – |
| CCC(C)(O)Cn1cc(-c2cnc(-n3ncc4cc(C#N)cnc43)cc2NC(C)C)nn1 (single isomer, unassigned) [Example 92, 1-(5-(1-(2-hydroxy-2-methylbutyl)-1H-1,2,3-triazol-4-yl)-4-(isopropylamino)pyridin-2-yl)-1H-pyrazolo[3,4-b]pyridine-5-carbonitrile] | 11 | – | – | – | 1120 | – | – | 12.4 |
| CC(C)Nc1cc(-n2ncc3cc(C#N)cnc32)ncc1-c1cn(CCc2ccncc2)nn1 [Example 120, 1-(4-(isopropylamino)-5-(1-(2-(pyridin-4-yl)ethyl)-1H-1,2,3-triazol-4-yl)pyridin-2-yl)-1H-pyrazolo[3,4-b]pyridine-5-carbonitrile] | 1 | – | – | – | – | – | 200 | 7.4 |
| CC(C)Nc1cc(-n2ncc3cc(C#N)cnc32)ncc1-c1cn(CC(=O)N2CCNCC2)nn1 [Example 192, 1-(4-(isopropylamino)-5-(1-(2-oxo-2-(piperazin-1-yl)ethyl)-1H-1,2,3-triazol-4-yl)pyridin-2-yl)-1H-pyrazolo[3,4-b]pyridine-5-carbonitrile] | 3 | – | – | – | – | – | 150 | < 1.5 |
| CC(=O)Cn1cc(-c2cnc(-n3ncc4cc(C#N)cnc43)cc2NC(C)C)nn1 [Example 170, 1-(4-(isopropylamino)-5-(1-(2-oxopropyl)-1H-1,2,3-triazol-4-yl)pyridin-2-yl)-1H-pyrazolo[3,4-b]pyridine-5-carbonitrile] | 2 | – | – | – | – | – | 430 | 4.5 |
